Experimental findings from patent US20070249637A1, “Inhibitors Of Hepatitis C Virus Protease, And Compositions And Treatments Using The Same” (priority 2004, published 2007) are described below.

Values joined by “and” are separate entries in the source; they are usually repeats but may differ in a detail not shown here. Equal values may be shown once. Read-outs that look alike come from different tables or passages of the source. A value given as a limit tells only on which side of the number the result lay.

The conditions of series [1]: rcm bond, 15-membered ring, DCM, 40.0 °C.
Series [2] has as its target T1, full-length NS3-NS4A enzyme (Hepatitis C virus genotype 1a, UniProt P27958).
T1 construct: 3 nM full-length NS3-NS4A enzyme
Description: HCV protease assay (continuous FRET, full-length enzyme). It is filed as biochemical. Conditions: 3 nM full-length NS3-NS4A, 3 uM depsipeptide FRET substrate S1; competitive inhibition fit. As for the experimental part: HCV protease activity and compound inhibition was monitored using a continuous, fluorescence resonance energy transfer (FRET) assay. Test compounds at various concentrations were added to assay buffer (50 mM MOPS pH 7.5, 50 mM NaCl, 20% glycerol, 0.025% Triton-X 100, 1 mM tris(2-carboxyethyl)phosphine) containing 3 uM depsipeptide FRET substrate S1 (Anaspec) (see Taliani et al. Analytical Biochemistry, 240, 60-67 (1996)) in a white, non-binding 96-well plate (Corning). The reaction was started by the addition of 3 nM full-length NS3-NS4A enzyme. The increase in fluorescence intensity following peptide cleavage was monitored using a Safire fluorescence plate reader (Tecan). The excitation and emission wavelengths were 340 nm and 500 nm, respectively. Inhibition constants (KI) were calculated by non-linear regression analysis using an equation derived for competitive inhibition.

The subject of series [3] is HCV dual reporter subgenomic replicon (B6b cell line). Nature of the series: HCV dual reporter subgenomic replicon assay, Renilla luciferase (antiviral activity). In kind it is cell-based. Conditions: Hepatitis C virus, 72 h; 50% reduction of Renilla luciferase expression, 3 days incubation. As for the experimental part:
The compounds described herein were tested for antiviral activity utilizing a dual-reporter replicon assay as described in U.S. patent application Ser. No. 10/818,075 (the '075 application), filed Apr. 5, 2004. The disclosure of the '075 application is incorporated herein.
(§1) Cell-based antiviral activity was evaluated in the previously described HCV dual reporter subgenomic replicon system (the '075 application). With this system, the effects of a compound on both HCV replication and cell viability can be simultaneously determined by measuring the intracellular levels of two separate reporter proteins. The dicistronic selectable replicon contains the Renilla luciferase gene such that Renilla luciferase activity within stably-transfected cells serves as a marker of HCV replication. The firefly luciferase gene is stably integrated into and expressed by the Huh-7 host cells. Since firefly luciferase activity is dependent upon cellular transcription and translation, firefly luciferase activity serves as an indicator of cell viability.
(§2) The dual reporter selectable replicon cell line (B6b) was maintained in DMEM supplemented with 10% FBS, L-glutamine, non-essential amino acids, penicillin, streptomycin, and selection agents (200 ug/ml G418 and 6 ug/ml blastocidin). On the first day of the experiment, cells were trypsinized, washed, and diluted in medium lacking the selection agents. Cells were transferred to 96-well, black-walled, clear bottom plates at a density of 2×10^4 cells in 150 ul of medium per well. Cells were allowed to settle for 60 to 90 minutes while compounds were being prepared. Each compound was initially diluted to a 4× working stock (2.56% DMSO in tissue culture medium) that was then serially diluted nine times in half log increments in medium with 2.56% DMSO. Fifty microliters of each dilution were then added in triplicate to the plated cells in order to obtain final IX compound concentrations with 0.64% DMSO. Typical testing concentrations ranged from 320 uM to 10 nM. Control wells containing 0.64% DMSO without compound were also included on each plate.
(§3) After 3 days of incubation under humidity at 37° C. with 5% CO2, plates were microscopically examined for compound precipitation and cell death. Tissue culture medium was then aspirated and cells were lysed with 20 ul of 1× Passive Lysis Buffer (Promega, Madison, Wis.). Reporter activity was measured using a MicroBeta Jet 1450 (Perkin Elmer, Boston, Mass.) following sequential 50 ul additions of firefly and Renilla luciferase substrates as described in the manufacturers protocol (Promega). Luciferase activities were expressed as a percentage of the signals observed in the compound-free control wells. The amount of compound required to reduce Renilla luciferase expression by 50% is defined as the 50% effective concentration, or EC50. The amount of compound that reduces firefly luciferase expression by 50% is defined as the 50% cytotoxic concentration, or CC50. A therapeutic index (TI) is calculated by dividing the CC50 by the EC50.

Series [4] is described as follows: in vitro. In kind it is cell-based. Conditions: human; 50% reduction of firefly luciferase expression, 3 days incubation; read-out: Replicon CC50. As for the experimental part:
as §1, §2, §3
(In antiviral work, replicon cells carry a viral genome segment that copies itself.)

T1 sequence (P27958 1027-1657): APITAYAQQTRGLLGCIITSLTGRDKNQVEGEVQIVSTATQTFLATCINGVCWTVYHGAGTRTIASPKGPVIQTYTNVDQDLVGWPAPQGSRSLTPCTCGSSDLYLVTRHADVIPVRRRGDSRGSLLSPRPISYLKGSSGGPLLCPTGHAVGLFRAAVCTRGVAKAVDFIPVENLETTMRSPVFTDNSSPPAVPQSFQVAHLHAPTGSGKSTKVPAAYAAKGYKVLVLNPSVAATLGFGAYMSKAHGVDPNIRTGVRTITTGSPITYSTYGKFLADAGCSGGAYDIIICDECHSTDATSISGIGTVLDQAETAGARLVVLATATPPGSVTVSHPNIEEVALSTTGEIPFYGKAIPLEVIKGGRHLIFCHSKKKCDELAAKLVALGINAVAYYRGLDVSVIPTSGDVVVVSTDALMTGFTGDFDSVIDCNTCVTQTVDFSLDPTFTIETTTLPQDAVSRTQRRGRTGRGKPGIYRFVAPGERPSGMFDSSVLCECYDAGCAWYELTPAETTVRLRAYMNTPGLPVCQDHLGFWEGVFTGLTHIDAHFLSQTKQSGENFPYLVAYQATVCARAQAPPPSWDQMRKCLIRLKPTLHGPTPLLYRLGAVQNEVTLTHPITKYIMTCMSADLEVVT
T1 sequence (P27958 1658-1711): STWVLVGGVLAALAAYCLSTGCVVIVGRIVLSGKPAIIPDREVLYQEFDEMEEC

For the compound `COC(=O)[C@@]12C[C@H]1/C=C\CCCCCC(NC(=O)OC(C)(C)C)C(=O)N1C[C@H](Oc3cc(-c4ccccn4)nc4ccsc34)C[C@H]1C(=O)N2` (stereo partly shown), the ring closure, isolated yield in series [1] (from C=CCCCCCC(NC(=O)OC(C)(C)C)C(=O)N1C[C@H](Oc2cc(-c3ccccn3)nc3ccsc23)C[C@H]1C(=O)N[C@]1(C(=O)OC)C[C@H]1C=C, Grubbs II (0.25 equiv), 2.0 mM, 4.0 h) worked out at 24%.
`COC(=O)[C@@]12C[C@H]1/C=C\CCCCC[C@H](NC(=O)OC(C)(C)C)C(=O)N1C[C@H](Oc3nc(-c4cc(C)nn4C)nc4ccsc34)C[C@H]1C(=O)N2`: the ring closure, isolated yield in series [1] (from C=CCCCCCC(NC(=O)OC(C)(C)C)C(=O)N1CC(Oc2nc(-c3cc(C)nn3C)nc3ccsc23)CC1C(=O)NC1(C(=O)OC)CC1C=C, Grubbs II (0.15 equiv), 5.0 mM, 2.0 h) turned out to be 38%.
For `COC(=O)[C@@]12C[C@H]1/C=C\CCCCC[C@H](NC(=O)OC(C)(C)C)C(=O)N1C[C@H](Oc3nc(-c4ccccn4)nc4ccsc34)C[C@H]1C(=O)N2`, the ring closure, isolated yield in series [1] (from C=CCCCCC[C@H](NC(=O)OC(C)(C)C)C(=O)N1C[C@H](Oc2nc(-c3ccccn3)nc3ccsc23)C[C@H]1C(=O)N[C@]1(C(=O)OC)C[C@H]1C=C, Grubbs II (0.15 equiv), 5.0 mM, 2.0 h) stood at 25%.
Consider `COC(=O)[C@@]12C[C@H]1/C=C\CCCCC[C@H](NC(=O)OC(C)(C)C)C(=O)N1C[C@H](Oc3nc(-c4ccccn4)nc4sccc34)C[C@H]1C(=O)N2`, for which, in series [1] (from C=CCCCCC[C@H](NC(=O)OC(C)(C)C)C(=O)N1C[C@H](Oc2nc(-c3ccccn3)nc3sccc23)C[C@H]1C(=O)N[C@]1(C(=O)OC)C[C@H]1C=C, Grubbs II (0.15 equiv), 5.0 mM, 2.0 h), the ring closure, isolated yield was 38%.
As a reminder, the Ki is the dissociation constant of the complex between target and ligand, obtained from inhibition or displacement. Higher therefore signals lower affinity. One may read the EC50 as the midpoint of the concentration-response curve. Read a high EC50 as lower potency in that assay. What is called CC50 is the concentration that lowers cell viability or growth by half. `Cc1cc(-c2nc(O[C@@H]3C[C@H]4C(=O)N[C@]5(C(=O)O)C[C@H]5/C=C\CCCCC[C@H](NC(=O)O[C@H]5CCOC5)C(=O)N4C3)c3sccc3n2)n(C)n1` [Example 65, (2R,6S,12Z,13aS,14aR,16aS)-2-{[2-(1,3-Dimethyl-1H-pyrazol-5-yl)thieno[3,2-d]pyrimidin-4-yl]oxy}-5,16-dioxo-6-({[(3S)-tetrahydrofuran-3-yloxy]carbonyl}amino)-1,2,3,6,7,8,9,10,11,13a,14,15,16,16a-tetradecahydrocyclopropa[e]pyrrolo[1,2-a][1,4]diazacyclopentadecine-14a(5H)-carboxylic acid]: the Ki in series [2] was 10.3 nM and 7.9 nM. In series [3], this compound yielded a concentration for a half-maximal effect (EC50) of 2600 nM. Besides, in series [4], the CC50 at 3 days was above 320000 nM.
For `CC(C)Nc1cccc(-c2nc(O[C@@H]3C[C@H]4C(=O)N[C@]5(C(=O)O)C[C@H]5/C=C\CCCCC[C@H](NC(=O)OC(C)(C)C)C(=O)N4C3)c3sccc3n2)n1` [Example 79, (2R,6S,12Z,13aS,14aR,16aS)-6-[(Tert-butoxycarbonyl)amino]-2-({2-[6-(isopropylamino)pyridin-2-yl]thieno[3,2-d]pyrimidin-4-yl}oxy)-5,16-dioxo-1,2,3,6,7,8,9,10,11,13a,14,15,16,16a-tetradecahydrocyclopropa[e]pyrrolo[1,2-a][1,4]diazacyclopentadecine-14a(5H)-carboxylic acid], the Ki in series [2] stood at 11.3 nM. This compound also showed a 50% effective concentration (EC50) in series [3] of 180 nM. Further, the half-maximal cytotoxic concentration (CC50) at 3 days in series [4] came out at 212000 nM.
In the same order, the values of `Cn1ccnc1-c1cc2nccc(O[C@@H]3C[C@H]4C(=O)N[C@]5(C(=O)O)C[C@H]5/C=C\CCCCC[C@H](NC(=O)OC(C)(C)C)C(=O)N4C3)c2s1` [Example 86, (2R,6S,12Z,13aS,14aR,16aS)-6-[(tert-butoxycarbonyl)amino]-2-{[2-(1-methyl-1H-imidazol-2-yl)thieno[3,2-b]pyridin-7-yl]oxy}-5,16-dioxo-1,2,3,6,7,8,9,10,11,13a,14,15,16,16a-tetradecahydrocyclopropa[e]pyrrolo[1,2-a][1,4]diazacyclopentadecine-14a(5H)-carboxylic acid] are 69 nM, 15000 nM and above 320000 nM.
In the case of `Cn1ccnc1-c1cc2nccc(O[C@@H]3C[C@H]4C(=O)N[C@]5(C(=O)O)C[C@H]5/C=C\CCCCC[C@H](NC(=O)OC5CCCC5)C(=O)N4C3)c2s1` [Example 89, (2R,6S,12Z,13aS,14aR,16aS)-6-{[(Cyclopentyloxy)carbonyl]amino}-2-{[2-(1-methyl-1H-imidazol-2-yl)thieno[3,2-b]pyridin-7-yl]oxy}-5,16-dioxo-1,2,3,6,7,8,9,10,11,13a,14,15,16,16a-tetradecahydrocyclopropa[e]pyrrolo[1,2-a][1,4]diazacyclopentadecine-14a(5H)-carboxylic acid], in series [2], the Ki is 14 nM and 13 nM. This compound had an EC50 in series [3] of 500 nM. Further, the CC50 at 3 days in series [4] was above 320000 nM.
For `Cn1ccnc1-c1cc2nccc(O[C@@H]3C[C@H]4C(=O)N[C@]5(C(=O)O)C[C@H]5/C=C\CCCCC[C@H](NC(=O)CC5CC5)C(=O)N4C3)c2s1` [Example 91, (2R,6S,12Z,13aS,14aR,16aS)-6-[(Cyclopropylacetyl)amino]-2-{[2-(1-methyl-1H-imidazol-2-yl)thieno[3,2-b]pyridin-7-yl]oxy}-5,16-dioxo-1,2,3,6,7,8,9,10,11,13a,14,15,16,16a-tetradecahydrocyclopropa[e]pyrrolo[1,2-a][1,4]diazacyclopentadecine-14a(5H)-carboxylic acid], the inhibition constant Ki in series [2] was 91 nM and 70 nM. Also, in series [3], a half-maximal response (EC50) required 290 nM. Further, in series [4], the CC50 at 3 days is above 320000 nM.
